Read-outs that look alike come from different tables or passages of the source.
Molecular target: T1, mouse TMEM16A mutant I640A (Mus musculus, UniProt Q8BHY3, I640A)
T1 construct: expressed in transfected cells; host or cells: HEK293T
T1 sequence (Q8BHY3 1-960 I640A): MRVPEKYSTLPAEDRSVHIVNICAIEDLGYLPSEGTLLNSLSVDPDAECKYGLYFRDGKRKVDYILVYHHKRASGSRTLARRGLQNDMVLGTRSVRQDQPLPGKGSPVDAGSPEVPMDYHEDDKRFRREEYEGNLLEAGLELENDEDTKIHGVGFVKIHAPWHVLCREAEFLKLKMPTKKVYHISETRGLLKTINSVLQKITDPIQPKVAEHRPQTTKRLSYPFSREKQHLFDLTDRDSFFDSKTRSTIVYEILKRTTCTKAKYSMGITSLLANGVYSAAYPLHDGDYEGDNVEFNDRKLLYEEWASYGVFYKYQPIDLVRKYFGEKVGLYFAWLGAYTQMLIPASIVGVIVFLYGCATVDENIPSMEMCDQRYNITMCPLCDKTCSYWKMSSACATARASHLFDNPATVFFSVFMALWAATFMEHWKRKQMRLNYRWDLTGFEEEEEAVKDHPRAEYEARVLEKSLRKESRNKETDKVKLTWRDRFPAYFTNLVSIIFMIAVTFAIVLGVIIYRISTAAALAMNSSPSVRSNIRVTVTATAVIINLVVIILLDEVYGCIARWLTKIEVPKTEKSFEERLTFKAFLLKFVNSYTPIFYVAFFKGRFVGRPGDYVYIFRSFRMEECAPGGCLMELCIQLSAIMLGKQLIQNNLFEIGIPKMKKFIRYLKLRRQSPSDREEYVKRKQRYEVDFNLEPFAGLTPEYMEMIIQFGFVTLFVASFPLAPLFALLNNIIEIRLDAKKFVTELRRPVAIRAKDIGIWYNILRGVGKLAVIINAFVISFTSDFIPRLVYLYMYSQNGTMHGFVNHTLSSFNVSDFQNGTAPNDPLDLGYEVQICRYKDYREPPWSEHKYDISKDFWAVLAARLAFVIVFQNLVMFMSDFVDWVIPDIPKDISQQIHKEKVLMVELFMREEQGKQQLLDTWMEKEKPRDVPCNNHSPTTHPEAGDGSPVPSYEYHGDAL
Test: Inside-out patch recording of 1PBC block, mutant I640A
Assay type: cell-based
Details: for remaining activity at 100 µM: 1PBC conc 100; for remaining activity at 100 µM / remaining activity at 3 µM / remaining activity at 10 µM / remaining activity at 30 µM: read-out: relative current in 1PBC (avr); for remaining activity at 3 µM: 1PBC conc 3; for remaining activity at 10 µM: 1PBC conc 10; for remaining activity at 30 µM: 1PBC conc 30
Experimental: HEK293T cells (ATCC CRL-1573) were maintained in Dulbecco’s modified Eagle’s medium (DMEM; Sigma-Aldrich) supplemented with 10 U ml^−1 penicillin, 0.1 mg ml^−1 streptomycin (Sigma-Aldrich), 2 mM L-glutamine (Sigma-Aldrich), and 10% FBS (Sigma-Aldrich) in a humidified atmosphere containing 5% CO2 at 37 °C. HEK293S GnTI^− cells (ATCC CRL-3022) were maintained in HyClone HyCell TransFx-H medium (GE Healthcare) supplemented with 10 U ml^−1 penicillin, 0.1 mg ml^−1 streptomycin, 4 mM L-glutamine, 0.15% poloxamer 188 (Sigma-Aldrich), and 1% FBS in an atmosphere containing 5% CO2 at 185 rpm at 37 °C. The ac splice variant of mouse TMEM16A (UniProt ID: Q8BHY3), mouse TMEM16B (UniProt ID: Q8CFW1), or mouse TMEM16F (UniProt ID: Q6P9J9) bearing a 3C cleavage site, a Venus YFP, a Myc tag, and a Streptavidin-binding peptide (SBP) downstream of the open reading frame in a modified pcDNA3.1 vector (Invitrogen) were used as described previously[21],[31]. Mutations were introduced using a modified QuikChange method[58] and were verified by sequencing.
HEK293T cells were transfected with 3–4 μg DNA per 6 cm Petri dish using the calcium phosphate co-precipitation method and were used within 24–96 h after transfection. Recordings were performed on inside-out patches excised from HEK293T cells expressing the construct of interest. Patch pipettes were pulled from borosilicate glass capillaries (O.D. 1.5 mm, I.D. 0.86 mm, Sutter Instrument) and were fire-polished with a microforge (Narishige) before use. Pipette resistance was typically 3–8 MΩ when filled with the recording solutions detailed below. Seal resistance was typically 4 GΩ or higher. Voltage-clamp recordings were made using Axopatch 200B, Digidata 1550, and Clampex 10.7 (Molecular Devices). Analog signals were filtered with the in-built 4-pole Bessel filter at 10 kHz and were digitized at 20 kHz. Solution exchange was achieved using a gravity-fed system through a theta glass pipette mounted on an ultra-fast piezo-driven stepper (Siskiyou). […] All recordings were performed at 20 °C.
A symmetrical ionic condition was used throughout. Stock solution with Ca^2+-EGTA contained 150 mM NaCl, 5.99 mM Ca(OH)2, 5 mM EGTA, and 10 mM HEPES at pH 7.40. Stock solution with EGTA contained 150 mM NaCl, 5 mM EGTA, and 10 mM HEPES at pH 7.40. Free Ca^2+ concentrations were adjusted by mixing the stock solutions at the required ratios calculated using the WEBMAXC program (http://web.stanford.edu/~cpatton/webmaxcS.htm). Patch pipettes were filled with the stock solution with Ca^2+-EGTA, which has a free Ca^2+ concentration of 1 mM. 1PBC (ChemBridge) stock was reconstituted in anhydrous DMSO (Sigma-Aldrich) at 100 mM and stored at −20 °C. Working solutions with 1PBC were prepared by serial dilution. Unless otherwise stated, experiments were performed at a saturating Ca^2+ concentration as shown in Supplementary Table 1 and the primary data were corrected for current rundown as described previously[21],[25].
Concentration-response relations, obtained from the ratio of the I-V plots before and after the application of the blocker, were fitted to the Hill equation,1 I/Imax=1/1+IC50/[blocker]^h where I/Imax is the normalized current responses, IC50 defines the concentration at which inhibition is at its half-maximum, and h is the Hill coefficient.

In the case of N#Cc1c(C(F)(F)F)cc(O)n2c1nc1ccccc12 [1PBC], the remaining activity at 100 µM (40 mV) is reported as 18.8%, the IC50 (60 mV, 15 µM Ca2+) is reported as 23.1 µM and the remaining activity at 3 µM (60 mV) is reported as 89%. The remaining activity at 10 µM (60 mV) was 69.4%, the remaining activity at 30 µM (60 mV) was 44.3% and the remaining activity at 100 µM (60 mV) was 17.7%. The “log-fold IC50 (change of mutant vs WT)” value (80 mV) was 1.079, the IC50 (80 mV, 15 µM Ca2+) was 22.1 µM and the remaining activity at 3 µM (80 mV) was 89.4%. For the same molecule, the remaining activity at 10 µM (80 mV) was 67.9%, the remaining activity at 30 µM (80 mV) was 43% and the remaining activity at 100 µM (80 mV) was 17.7%. It also gave an IC50 (100 mV, 15 µM Ca2+) of 23.1 µM, a remaining activity at 3 µM (100 mV) of 91.3% and a remaining activity at 10 µM (100 mV) of 69.4%. For the same molecule, the remaining activity at 30 µM (100 mV) was 43.1%, the remaining activity at 100 µM (100 mV) was 18% and the IC50 (120 mV, 15 µM Ca2+) was 24.9 µM. It also gave a remaining activity at 3 µM (120 mV) of 93.7%, a remaining activity at 10 µM (120 mV) of 71.5% and a remaining activity at 30 µM (120 mV) of 45%. For the same molecule, the remaining activity at 100 µM (120 mV) was 17.7%, the IC50 (140 mV, 15 µM Ca2+) was 28.2 µM and the remaining activity at 3 µM (140 mV) was 96.5%. For the same molecule, the remaining activity at 10 µM (140 mV) was 75.3%, the remaining activity at 30 µM (140 mV) was 47.6% and the remaining activity at 100 µM (140 mV) was 18.5%. It also gave an IC50 (-20 mV, 15 µM Ca2+) of 36.1 µM, a remaining activity at 3 µM (-20 mV) of 91.2% and a remaining activity at 10 µM (-20 mV) of 78.5%. It also gave a remaining activity at 30 µM (-20 mV) of 55.5%, a remaining activity at 100 µM (-20 mV) of 25.8% and an IC50 (-40 mV, 15 µM Ca2+) of 41.5 µM. The remaining activity at 3 µM (-40 mV) was 91.5%, the remaining activity at 10 µM (-40 mV) was 80.9% and the remaining activity at 30 µM (-40 mV) was 58.8%. The remaining activity at 100 µM (-40 mV) was 28.8%, the IC50 (-60 mV, 15 µM Ca2+) was 46.6 µM and the remaining activity at 3 µM (-60 mV) was 91.7%. It also gave a remaining activity at 10 µM (-60 mV) of 83.4%, a remaining activity at 30 µM (-60 mV) of 61.1% and a remaining activity at 100 µM (-60 mV) of 31.4%. For the same molecule, the IC50 (-80 mV, 15 µM Ca2+) was 53 µM, the remaining activity at 3 µM (-80 mV) was 92.4% and the remaining activity at 10 µM (-80 mV) was 84.6%. The remaining activity at 30 µM (-80 mV) was 64.1%, the remaining activity at 100 µM (-80 mV) was 34.6% and the IC50 (-100 mV, 15 µM Ca2+) was 60.2 µM. The remaining activity at 3 µM (-100 mV) was 93.4%, the remaining activity at 10 µM (-100 mV) was 86.7% and the remaining activity at 30 µM (-100 mV) was 66.4%. It also gave a remaining activity at 100 µM (-100 mV) of 37.8%, an IC50 (-120 mV, 15 µM Ca2+) of 66 µM and a remaining activity at 3 µM (-120 mV) of 93.4%. It also gave a remaining activity at 10 µM (-120 mV) of 87.4%, a remaining activity at 30 µM (-120 mV) of 68.3% and a remaining activity at 100 µM (-120 mV) of 40.2%. It also gave an IC50 (-140 mV, 15 µM Ca2+) of 73.5 µM, a remaining activity at 3 µM (-140 mV) of 93.7% and a remaining activity at 10 µM (-140 mV) of 88.3%. For the same molecule, the remaining activity at 30 µM (-140 mV) was 69.4%, the remaining activity at 100 µM (-140 mV) was 44% and the IC50 (I640A, V 0 mV) was 31.5 µM. It also gave an IC50 (I640A, V 20 mV) of 27.5 µM, an IC50 (I640A, V 40 mV) of 24.7 µM and an IC50 (I640A, V 60 mV) of 23.1 µM. For the same molecule, the IC50 (I640A, V 80 mV) was 22.1 µM, the IC50 (I640A, V 100 mV) was 23.1 µM and the IC50 (I640A, V 120 mV) was 24.9 µM. The IC50 (I640A, V 140 mV) was 28.2 µM, the IC50 (I640A, V -20 mV) was 36.1 µM and the IC50 (I640A, V -40 mV) was 41.5 µM. It also gave an IC50 (I640A, V -60 mV) of 46.6 µM, an IC50 (I640A, V -80 mV) of 53 µM and an IC50 (I640A, V -100 mV) of 60.2 µM. It also gave an IC50 (I640A, V -120 mV) of 66 µM and an IC50 (I640A, V -140 mV) of 73.5 µM.

— paper PMC9120017, “Inhibition mechanism of the chloride channel TMEM16A by the pore blocker 1PBC” (Nature Communications, 2022)
